Measurements: patent publication US11629171B2, “Beta-hairpin peptidomimetics” (POLYPHOR AG, priority 2017, dated 2023)
In brackets after ≈: the same amount, converted by molar mass. Where a SMILES comes first, the peptide text is derived from it. Bridges are numbered along the chain shown (N, C = ends). Roman numbers before positions name the chains, in order. [ ]: non-standard residue; d: D form. The star is where a group is joined. Thr(ol) = C[C@@H](O)[C@H](N)CO; Tle = CC(C)(C)[C@H](N)C(=O)O; Hiv = CC(C)[C@H](O)C(=O)O; dDab = NCC[C@@H](N)C(=O)O; hSer = N[C@@H](CCO)C(=O)O; Dab = NCC[C@H](N)C(=O)O; Dap = NC[C@H](N)C(=O)O; NHCH2CH2OH = OCCN*

Key:
Format in all cases: cell-based
[1] = test system: Klebsiella pneumoniae 968733; conditions: 968733
Method in brief: (§1)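 Peptides are tested in serial two-fold dilutions against about 10^6 CFU/mL in MH-II broth containing 0.002% P-80 (v/v, final). Plates incubate 18-20 h at 35° C, and the MIC is the lowest peptide level (μg/mL) showing no visible growth.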

[2] = test system: Pseudomonas aeruginosa ATCC 27853; conditions: ATCC 27853
Method in brief: as §1

[3] = test system: Klebsiella pneumoniae SSI #3010; conditions: SSI #3010
Method in brief: as §1

[4] = test system: Acinetobacter baumannii 872842; conditions: 872842
Method in brief: as §1

[5] = test system: Escherichia coli ATCC 25922; conditions: ATCC 25922
Method in brief: as §1

Escherichia coli 926415 = conditions: 926415
Method in brief: as §1

[6] = test system: Acinetobacter baumannii DSM 30008; conditions: DSM 30008
Method in brief: as §1

[7] = test system: Enterobacter cloacae 848840; conditions: 848840
Method in brief: as §1

[8] = test system: human red blood cells (hRBC); experiment: Hemolysis; conditions: red cells of human, 1 h, 200
Method in brief: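 Hemoglobin release from PBS-washed hRBC at 20% (v/v), incubated 1 h at 37° C with peptides at 200 μg/mL, is measured at 540 nm. Values are blank corrected and given as a fraction of Triton X-100 lysis × 100%.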

| Structure (SMILES) | MIC [1] [µg/mL] | MIC [2] [µg/mL] | MIC [3] [µg/mL] | MIC [4] [µg/mL] | MIC [5] [µg/mL] | MIC (Escherichia coli 926415) [µg/mL] | MIC [6] [µg/mL] | MIC [7] [µg/mL] | Hemolysis at 200 μg/mL [8] [%] |
| --- | --- | --- | --- | --- | --- | --- | --- | --- | --- |
| CC(C)C[C@@H]1NC(=O)[C@@H](CC(C)C)NC(=O)[C@H](CCN)NC(=O)[C@@H](NC(=O)[C@H](CCN)NC(=O)[C@H](CO)NC(=O)[C@H](CCN)NC(=O)CC[C@@H]2NC(=O)[C@H](CN)NC(=O)[C@H](Cc3ccc(O)cc3)NC(=O)[C@@H](NC(=O)[C@@H](O)C(C)C)CSSC[C@@H](C(=O)NCCO)NC(=O)[C@H](C(C)(C)C)NC(=O)[C@H](CO)NC(=O)[C@H](Cc3c[nH]c4ccccc34)NC(=O)[C@H]([C@@H](C)O)NC(=O)[C@@H](CCN)NC2=O)CCNC(=O)[C@H]([C@@H](C)O)NC(=O)[C@H](CCN)NC(=O)[C@H](CCN)NC1=O [Ex. 59] (I: H-[Hiv]CY[Dap]E[dDab]TWS[Tle]C-NHCH2CH2OH / II: [Dab]S[Dab][Dab][Dab][dL]L[Dab][Dab]T; disulfide I:2-I:11; amide I:5-II:N; lactam II:4-II:C) | 0.25 (≈ 0.107 µM) | 0.125 (≈ 0.0537 µM) | 0.125 (≈ 0.0537 µM) | 0.25 (≈ 0.107 µM) | 0.125 (≈ 0.0537 µM) | 0.125 (≈ 0.0537 µM) | 0.125 (≈ 0.0537 µM) | 1 (≈ 0.429 µM) | <1 |
| CC(C)C[C@@H]1NC(=O)[C@@H](CC(C)C)NC(=O)[C@H](CCN)NC(=O)[C@@H](NC(=O)[C@H](CCN)NC(=O)[C@H](CO)NC(=O)[C@H](CCN)NC(=O)CC[C@@H]2NC(=O)[C@H](CCN)NC(=O)[C@H](Cc3ccc(O)cc3)NC(=O)[C@@H](NC(=O)[C@@H](O)C(C)C)CSSC[C@@H](C(=O)N[C@H](CO)[C@@H](C)O)NC(=O)[C@H](C(C)(C)C)NC(=O)[C@H](CO)NC(=O)[C@H](Cc3c[nH]c4ccccc34)NC(=O)[C@H](CCO)NC(=O)[C@@H](CCN)NC2=O)CCNC(=O)[C@H]([C@@H](C)O)NC(=O)[C@H](CCN)NC(=O)[C@H](CCN)NC1=O [Ex. 60] (I: H-[Hiv]CY[Dab]E[dDab][hSer]WS[Tle]C[Thr(ol)] / II: [Dab]S[Dab][Dab][Dab][dL]L[Dab][Dab]T; disulfide I:2-I:11; amide I:5-II:N; lactam II:4-II:C) | 0.125 (≈ 0.0524 µM) | 0.125 (≈ 0.0524 µM) | 0.125 (≈ 0.0524 µM) | 0.125 (≈ 0.0524 µM) | 0.0625 (≈ 0.0262 µM) | 0.125 (≈ 0.0524 µM) | 0.0625 (≈ 0.0262 µM) | 4 (≈ 1.68 µM) | <1 |
| CC(C)C[C@@H]1NC(=O)[C@@H](Cc2ccccc2)NC(=O)[C@H](CCN)NC(=O)[C@@H](NC(=O)[C@H](CCN)NC(=O)[C@@H](NC(=O)[C@H](CCN)NC(=O)CC[C@@H]2NC(=O)[C@H](CCN)NC(=O)[C@H](Cc3ccc(O)cc3)NC(=O)[C@@H](NC(=O)[C@@H](O)C(C)C)CSSC[C@@H](C(=O)N[C@H](CO)[C@@H](C)O)NC(=O)[C@H](C(C)(C)C)NC(=O)[C@H](CO)NC(=O)[C@H](Cc3c[nH]c4ccccc34)NC(=O)[C@H](CCO)NC(=O)[C@@H](CCN)NC2=O)[C@@H](C)O)CCNC(=O)[C@H]([C@@H](C)O)NC(=O)[C@H](CCN)NC(=O)[C@H](CCN)NC1=O [Ex. 61] (I: H-[Hiv]CY[Dab]E[dDab][hSer]WS[Tle]C[Thr(ol)] / II: [Dab]T[Dab][Dab][Dab][dF]L[Dab][Dab]T; disulfide I:2-I:11; amide I:5-II:N; lactam II:4-II:C) | 0.125 (≈ 0.0513 µM) | 0.125 (≈ 0.0513 µM) | 0.0625 (≈ 0.0257 µM) | 0.125 (≈ 0.0513 µM) | 0.125 (≈ 0.0513 µM) | 0.25 (≈ 0.103 µM) | 0.0625 (≈ 0.0257 µM) | 0.125 (≈ 0.0513 µM) | 3 |
| CC(=O)N[C@@H](CO)C(=O)N[C@H]1CSSC[C@@H](C(=O)N[C@H](C(N)=O)C(C)C)NC(=O)[C@H](C(C)C)NC(=O)[C@H](CO)NC(=O)[C@H](Cc2c[nH]c3ccccc23)NC(=O)[C@H](CCO)NC(=O)[C@@H](CCN)NC(=O)[C@H](CCC(=O)N[C@@H](CCN)C(=O)N[C@H](C(=O)N[C@@H](CCN)C(=O)N[C@H]2CCNC(=O)[C@H]([C@@H](C)O)NC(=O)[C@H](CCN)NC(=O)[C@H](CCN)NC(=O)[C@H](CC(C)C)NC(=O)[C@@H](CC(C)C)NC(=O)[C@H](CCN)NC2=O)[C@@H](C)O)NC(=O)[C@H](CCN)NC(=O)[C@H](Cc2ccc(O)cc2)NC1=O [Ex. 62] (I: Ac-SCY[Dab]E[dDab][hSer]WSVCV-NH2 / II: [Dab]T[Dab][Dab][Dab][dL]L[Dab][Dab]T; disulfide I:2-I:11; amide I:5-II:N; lactam II:4-II:C) | 0.125 (≈ 0.0515 µM) | 0.125 (≈ 0.0515 µM) | 0.0625 (≈ 0.0258 µM) | 0.125 (≈ 0.0515 µM) | 0.125 (≈ 0.0515 µM) | 0.25 (≈ 0.103 µM) | 0.0625 (≈ 0.0258 µM) | 4 (≈ 1.65 µM) | <1 |
| CC(=O)N[C@H](C(=O)N[C@H]1CSSC[C@@H](C(=O)N[C@@H](CO)C(N)=O)NC(=O)[C@H](Cc2ccc(O)cc2)NC(=O)[C@H](CO)NC(=O)[C@H](Cc2c[nH]c3ccccc23)NC(=O)[C@H](CCO)NC(=O)[C@@H](CCN)NC(=O)[C@H](CCC(=O)N[C@@H](CCN)C(=O)N[C@H](C(=O)N[C@@H](CCN)C(=O)N[C@H]2CCNC(=O)[C@H]([C@@H](C)O)NC(=O)[C@H](CCN)NC(=O)[C@H](CCN)NC(=O)[C@H](CC(C)C)NC(=O)[C@@H](CC(C)C)NC(=O)[C@H](CCN)NC2=O)[C@@H](C)O)NC(=O)[C@H](CCN)NC(=O)[C@H](C(C)C)NC1=O)C(C)C [Ex. 64] (I: Ac-VCV[Dab]E[dDab][hSer]WSYCS-NH2 / II: [Dab]T[Dab][Dab][Dab][dL]L[Dab][Dab]T; disulfide I:2-I:11; amide I:5-II:N; lactam II:4-II:C) | 1 (≈ 0.412 µM) | 0.125 (≈ 0.0515 µM) | 0.125 (≈ 0.0515 µM) | 0.5 (≈ 0.206 µM) | 0.125 (≈ 0.0515 µM) | 0.5 (≈ 0.206 µM) | 0.0625 (≈ 0.0258 µM) | 4 (≈ 1.65 µM) | <1 |
| CC(C)C[C@@H]1NC(=O)[C@@H](CC(C)C)NC(=O)[C@H](CCN)NC(=O)[C@@H](NC(=O)[C@H](CCN)NC(=O)[C@@H](NC(=O)[C@H](CCN)NC(=O)CC[C@@H]2NC(=O)[C@H](CCN)NC(=O)[C@H](C(C)C)NC(=O)[C@@H](NC(=O)[C@@H](O)C(C)C)CSSC[C@@H](C(=O)N[C@@H](Cc3ccc(O)cc3)C(=O)NCCO)NC(=O)[C@H](C(C)(C)C)NC(=O)[C@H](CO)NC(=O)[C@H](Cc3c[nH]c4ccccc34)NC(=O)[C@H](CCO)NC(=O)[C@@H](CCN)NC2=O)[C@@H](C)O)CCNC(=O)[C@H]([C@@H](C)O)NC(=O)[C@H](CCN)NC(=O)[C@H](CCN)NC1=O [Ex. 69] (I: H-[Hiv]CV[Dab]E[dDab][hSer]WS[Tle]CY-NHCH2CH2OH / II: [Dab]T[Dab][Dab][Dab][dL]L[Dab][Dab]T; disulfide I:2-I:11; amide I:5-II:N; lactam II:4-II:C) | 0.125 (≈ 0.0509 µM) | 0.125 (≈ 0.0509 µM) | 0.0625 (≈ 0.0254 µM) | 0.0625 (≈ 0.0254 µM) | 0.0625 (≈ 0.0254 µM) | 0.0625 (≈ 0.0254 µM) | 0.0625 (≈ 0.0254 µM) | 0.125 (≈ 0.0509 µM) | 2 |
| CC(C)C[C@@H]1NC(=O)[C@@H](CC(C)C)NC(=O)[C@H](CCN)NC(=O)[C@@H](NC(=O)[C@H](CCN)NC(=O)[C@@H](NC(=O)[C@H](CCN)NC(=O)CC[C@@H]2NC(=O)[C@H](CCN)NC(=O)[C@H]([C@@H](C)O)NC(=O)[C@@H](NC(=O)[C@@H](O)C(C)C)CSSC[C@@H](C(=O)N[C@@H](Cc3ccc(O)cc3)C(=O)NCCO)NC(=O)[C@H](C(C)(C)C)NC(=O)[C@H](CO)NC(=O)[C@H](Cc3c[nH]c4ccccc34)NC(=O)[C@H](CCO)NC(=O)[C@@H](CCN)NC2=O)[C@@H](C)O)CCNC(=O)[C@H]([C@@H](C)O)NC(=O)[C@H](CCN)NC(=O)[C@H](CCN)NC1=O [Ex. 70] (I: H-[Hiv]CT[Dab]E[dDab][hSer]WS[Tle]CY-NHCH2CH2OH / II: [Dab]T[Dab][Dab][Dab][dL]L[Dab][Dab]T; disulfide I:2-I:11; amide I:5-II:N; lactam II:4-II:C) | 0.25 (≈ 0.102 µM) | 0.125 (≈ 0.0509 µM) | 0.125 (≈ 0.0509 µM) | 0.25 (≈ 0.102 µM) | 0.125 (≈ 0.0509 µM) | 0.5 (≈ 0.203 µM) | 0.0625 (≈ 0.0254 µM) | 0.125 (≈ 0.0509 µM) | <1 |
| CC(=O)N[C@H](C(=O)N[C@H]1CSSC[C@@H](C(=O)N[C@@H](Cc2ccc(O)cc2)C(=O)NCCO)NC(=O)[C@H](C(C)(C)C)NC(=O)[C@H](CO)NC(=O)[C@H](Cc2c[nH]c3ccccc23)NC(=O)[C@H](CCO)NC(=O)[C@@H](CCN)NC(=O)[C@H](CCC(=O)N[C@@H](CCN)C(=O)N[C@H](C(=O)N[C@@H](CCN)C(=O)N[C@H]2CCNC(=O)[C@H]([C@@H](C)O)NC(=O)[C@H](CCN)NC(=O)[C@H](CCN)NC(=O)[C@H](CC(C)C)NC(=O)[C@@H](CC(C)C)NC(=O)[C@H](CCN)NC2=O)[C@@H](C)O)NC(=O)[C@H](CCN)NC(=O)[C@H](CO)NC1=O)C(C)C [Ex. 71] (I: Ac-VCS[Dab]E[dDab][hSer]WS[Tle]CY-NHCH2CH2OH / II: [Dab]T[Dab][Dab][Dab][dL]L[Dab][Dab]T; disulfide I:2-I:11; amide I:5-II:N; lactam II:4-II:C) | 0.25 (≈ 0.101 µM) | 0.125 (≈ 0.0503 µM) | 0.125 (≈ 0.0503 µM) | 0.125 (≈ 0.0503 µM) | 0.0625 (≈ 0.0252 µM) | 0.25 (≈ 0.101 µM) | 0.0625 (≈ 0.0252 µM) | 0.25 (≈ 0.101 µM) | 1 |
